Where two headings read alike, the source gives them in different places.
What was measured:
[1] = target: T1, estrogen receptor (calf uterine cytosol) (Bos taurus, UniProt P49884); test: Competition for the estrogen receptor in calf uterine cytosol; format: binding; details: for activity at 0.0005 µM: competitor 0.5 nM
T1 construct: Fresh calf uteri obtained from a slaughterhouse; from tissue; host or cells: calf uterus, 150,000 x g cytosol from lyophilized powder
T1 sequence (P49884 1-596): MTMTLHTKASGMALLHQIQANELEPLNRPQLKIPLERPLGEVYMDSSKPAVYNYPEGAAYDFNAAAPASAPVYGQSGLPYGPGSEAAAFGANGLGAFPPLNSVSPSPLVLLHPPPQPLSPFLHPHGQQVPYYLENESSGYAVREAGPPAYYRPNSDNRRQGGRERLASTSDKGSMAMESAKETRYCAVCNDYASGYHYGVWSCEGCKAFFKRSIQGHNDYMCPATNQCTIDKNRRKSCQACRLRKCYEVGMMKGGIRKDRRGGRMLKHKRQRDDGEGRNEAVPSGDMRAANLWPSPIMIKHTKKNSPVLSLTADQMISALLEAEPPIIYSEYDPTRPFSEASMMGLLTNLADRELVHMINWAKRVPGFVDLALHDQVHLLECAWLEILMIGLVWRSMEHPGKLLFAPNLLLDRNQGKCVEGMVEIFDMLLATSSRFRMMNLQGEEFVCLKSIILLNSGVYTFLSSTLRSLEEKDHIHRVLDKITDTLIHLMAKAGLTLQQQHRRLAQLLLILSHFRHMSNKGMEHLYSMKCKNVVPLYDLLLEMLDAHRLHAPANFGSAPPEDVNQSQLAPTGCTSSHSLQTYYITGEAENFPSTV
Experimental: Several compounds, at the two indicated concentrations, were allowed to compete with both labeled steroids for sites in calf uterine cytosol. Incubations were overnight at 4° C., and bound and free steroids were separated with dextran-coated charcoal.

estrogen receptors = details: ability to displace [3H]estradiol from receptor sites; cited from earlier work
[2] = system: 21-day-old female rats (uteri); test: Estrogen bioassay, uterine weight in 21-day-old female rats; format: in vivo; details: daily s.c. injections for 3 days, uterine weight on fourth day
Experimental: Estrogenic potency was assayed in 21-day-old female rats. […] On the fourth day, the uteri were removed, trimmed, blotted, and weighed.

[3] = target: T2, calf uterine estrogen receptor (Bos taurus, UniProt P49884); test: Saturation and Scatchard analysis of the estrogen receptor from calf uterus; format: binding; details: Scatchard analysis, calf uterine cytosol
T2 construct: Fresh calf uteri obtained from a slaughterhouse; from tissue; host or cells: calf uterus, 150,000 x g cytosol from lyophilized powder
T2 sequence (P49884 1-596): T1 sequence (P49884 1-596)
Experimental: Fresh calf uteri obtained from a slaughterhouse were brought to the laboratory on ice, immediately trimmed of fat, and cut into small pieces; the pieces were frozen in liquid nitrogen and pulverized. The pulverized frozen tissue was lyophilized, and the desiccated powder was stored under vacuum in sealed vials at -80° C. The uterine powders were usually used within 1 month of pulverization. When needed, the powders were suspended in 0.1M Tris-HCl, pH 7.4/2.5 mM EDTA/5 mM dithiotreithol (TED buffer) at 2.5 mg/ml and homogenized at 0° C. in a Polytron homogenizer with two or three pulses at 15 seconds each. The homogenate was then centrifuged at 150,000×g for 60 minutes and the resulting supernatant (cytosol), containing approximately 1 mg of protein per ml, was used for binding studies on the estrogen receptor.
After the solvent was removed under a stream of N2, 250 μl of cytosol was added and the samples were incubated at 0°-2° C. overnight. The following morning, 250 μl of a 0.5% suspension of dextran-coated charcoal in TED buffer was added to the tubes which then were mixed and centrifuged at 5000×g for 10 minutes. The supernatant was assayed to determine bound radioactivity.
A saturation analysis of the estrogen receptor from calf uterus was conducted. […] Nonspecific binding, specific binding and total binding were determined in parallel incubations containing 0.7 μM DES.
A Scatchard analysis of the estrogen receptor from calf uterus was also conducted.

[4] = system: estrogen-dependent human breast tumor cell line (MCF-7); test: Induction of growth of MCF-7 cells in vitro; format: cell-based
Text: This difference in potency, can be explained either by differences in the peripheral metabolism of the two compounds or by differences in events that occur after binding to the cytosolic receptor has taken place. At this time we believe the former explanation to be correct because the two estrogens are equipotent in vitro in inducing growth of an estrogen-dependent human breast tumor cell line (MCF-7).

[5] = system: antisera against bovine serum albumin complexes with E2-17-hemisuccinate, E2-6-carboxymethyloxime and E2-3-carboxymethyl ether; test: Radioimmunoassay with antisteroid antisera; format: binding, rabbits
Experimental: Antisteroid antisera were produced in rabbits immunized with steroid-bovineserum albumin conjugates.
Varying amounts of E2 dissolved in methanol were added to test tubes and evaporated to dryness. The residues were dissolved in 100 μl of antiserum that had been diluted in 0.1M phosphate, pH 7.0/0.015M sodium azide/0.15M NaCl/0.1% gelatin (PBS buffer). […] Upon completion of the incubation, 100 μl of 0.5% gelatin in PBS buffer was added, followed by 1 ml of PBS buffer containing 2.5 mg of dextran-coated charcoal. The mixture was agitated in a vortex mixer and, after 10 minutes at 4° C., it was centrifuged at 5000×g for 10 minutes at 4° C. Aliquots (0.9 ml) were assayed for radioactivity.
The data also indicate that very sensitive radioimmunoassays could be developed with all three antisera.

[6] = External localization of tracer in an ovariectomized squirrel monkey; format: in vivo, squirrel monkey (Saimari Sciureus)
Experimental: The tracer ^131 I-E2 was synthesized as described in Example 6 with the exception that Na ^131 I was used for the exchange. The subject, a squirrel monkey (Saimari Sciureus), weighing 1.5 kilograms, was ovariectomized 2 weeks before the start of the experiment and an estradiol containing Silastic implant was placed subcutaneously in […] back. The implant was removed 24 hours before the intravenous injection of 200 μCi of the tracer dissolved in saline. […] Within 1 to 2 hours radioactivity could be detected in the suprapubic region, but when the bladder was aspirated and washed, 3.8 μCi of radioactivity was found in the urine.

[7] = read-out: B/B0 × 10^2, tracer ^3 H-E2 (0.74 nM)
[8] = read-out: B/B0 × 10^2, tracer ^3 H-E2 (0.74 nM), competitor 5.0 nM
[9] = read-out: B/B0 × 10^2, tracer ^125 I-E2 (0.22 nM)
[10] = read-out: B/B0 × 10^2, tracer ^125 I-E2 (0.22 nM), competitor 5 nM

C[C@]12C[C@H](O)[C@H]3[C@@H](CCC4=CC(=O)CC[C@@]43C)[C@@H]1CC[C@@H]2C(=O)CO [Corticosterone]
activity at 0.0005 µM ([1]; tracer ^3 H-E2 (0.74 nM), read-out: B/B0 × 10^2): 103% | activity at 0.005 µM ([1]; tracer ^3 H-E2 (0.74 nM), competitor 5.0 nM, read-out: B/B0 × 10^2): 97% | activity at 0.0005 µM ([1]; tracer ^125 I-E2 (0.22 nM), read-out: B/B0 × 10^2): 100% | activity at 0.005 µM ([1]; tracer ^125 I-E2 (0.22 nM), competitor 5 nM, read-out: B/B0 × 10^2): 93%

C[C@]12CC[C@@H]3c4ccc(O)cc4C(I)=C[C@H]3[C@@H]1CC[C@@H]2O [6-iodoestra-1,3,5(10), 6-tetraene-3,17β-diol]
relative binding affinity (estrogen receptors): 0.49

C[C@]12CC[C@@H]3c4ccc(O)cc4CC[C@H]3[C@@H]1C[C@@H](I)[C@@H]2O [I-E2, 16α-iodoestra-1,3,5,(10)-triene-3,17β-diol]
estrogenic potency in vivo [2]: estrogenic in vivo, albeit not as potent as E2 itself | binding capacity [3]: 411 fmol/mg of protein | Kd ([3]; read-out: Ka (association constant) (converted)): 0.141 nM | activity at 0.0005 µM [1, 7]: 69% | activity at 0.005 µM [1, 8]: 12% | activity at 0.0005 µM [1, 9]: 35% | activity at 0.005 µM [1, 10]: 2% | competing for the estrogen receptor (in words) ([1]; regardless of which radioactive ligand was used): about equipotent | inducing growth of MCF-7 [4]: equipotent

C[C@]12CC[C@H](O)CC1=CC[C@@H]1[C@@H]2CC[C@]2(C)C(=O)CC[C@@H]12 [Dehydroisoandrosterone]
activity at 0.0005 µM [1, 7]: 98% | activity at 0.005 µM [1, 8]: 108% | activity at 0.0005 µM [1, 9]: 104% | activity at 0.005 µM [1, 10]: 107%

C[C@]12CC[C@@H]3c4ccc(O)cc4CC[C@H]3[C@@H]1CC[C@@H]2O [E2, estra-1,3,5(10)-triene-3,17β-diol, reference compound]
inducing growth of MCF-7 [4]: equipotent | tracer displaced from the antibody ([5]; anti-E2-6-carboxymethyloxime-albumin, 1 pg of E2): ~50%

C[C@]12CC[C@@H]3c4ccc(O)cc4CC[C@H]3[C@@H]1C[C@H](I)[C@@H]2O [16β-iodoestra-1,3,5(10)-triene-3-17β-diol]
relative binding affinity (estrogen receptors): 0.57

[3H]C1c2cc(O)ccc2[C@H]2CC[C@]3(C)[C@@H](O)CC[C@H]3[C@@H]2C1[3H] (stereo partly drawn) [^3 H-E2]
binding of tracer to antisera ([5]; three antisera, various dilutions): bound to all three antisera

C[C@]12CC[C@@H]3c4ccc(O)cc4CC[C@H]3[C@@H]1C[C@@H]([131I])[C@@H]2O [^131 I-E2]
imaging of the uterus ([6]; Anger Camera): uterus was then imaged | radioactivity found in the urine ([6]; bladder aspirated and washed, i.v. 200 μCi): 3.8 μCi | time until radioactivity detected in the suprapubic region ([6]; i.v. 200 μCi): 1 to 2 h | uptake of the tracer in the liver ([6]; i.v. 200 μCi, pin-hole collimator scan): could be seen immediately

CC(=O)[C@H]1CC[C@H]2[C@@H]3CCC4=CC(=O)CC[C@]4(C)[C@H]3CC[C@]12C [Progesterone]
activity at 0.0005 µM [1, 7]: 97% | activity at 0.005 µM [1, 8]: 102% | activity at 0.0005 µM [1, 9]: 98% | activity at 0.005 µM [1, 10]: 102%

From US4465676A, “16α Halogen substituted 3,17β-dihydroxy steroidal estrogens” (priority 1980, dated 1984)
